Measured values published in patent US20110152092A1, “Herbicidal compositions comprising flufenacet” (Bayer CropScience AG, priority 2009, published 2011).

Key:
[1] = system: HORVS; test: Greenhouse trial, activity with different soil types; format: in vivo, Hordeum vulgare, summer barley; conditions: g of AS/ha: (A) 120, (B) 1200, (C) 90, mixture 120 + 1200 + 90
Description: (§1) In the standard design of the test, seeds of various broad-leaved weed and weed grass biotypes (origins) were sown in a 8-13 cm diameter pot filled with natural soil of a standard field soil (loamy silt; non-sterile) and covered with a covering soil layer of about 1 cm. The pots were then cultivated in a greenhouse (12-16 h of light, temperature day 20-22° C., night 15-18° C.) until the time of application. The pots were treated on a laboratory track sprayer with spray liquors comprising the compositions according to the invention, mixtures of the prior art or components used individually. Application of the active compounds or active compound combinations formulated as WG, WP, EC or otherwise was carried out at the appropriate growth stages of the plants. The application rate for the spray application was 100-600 l of water/ha. After the treatment, the plants were returned to the greenhouses.
(§2) About 3 weeks after the application, the soil action or/and foliar action was assessed visually according to a scale of 0-100% in comparison to an untreated comparative group: 0%=no noticeable effect compared to the untreated comparative group; 100%=full effect compared to the untreated comparative group.
(notes: the term “seeds” also includes vegetative propagation forms such as, for example, rhizome pieces; abbreviations used: h light=hours of illumination, g of AS/ha=gram of active substance per hectare, l/ha=liter per hectare, S=sensitive, R=resistant) • 1. Pre-emergence action against weeds: seeds of various broad-leaved weed and weed grass biotypes (origins) were sown in a 8-13 cm diameter pot filled with natural soil of a standard field soil (loamy silt; non-sterile) and covered with a covering soil layer of about 1 cm. The pots were then cultivated in a greenhouse (12-16 h of light, temperature day 20-22° C., night 15-18° C.) until the time of application. The pots were treated at the BBCH stage 00-10 of the seeds/plants on a laboratory track sprayer with spray liquors comprising the compositions according to the invention, mixtures or components used individually, as WG, WP, EC or other formulations. The application rate for the spray application was 100-600 l of water/ha. After the treatment, the plants were returned to the greenhouses and, when required, treated with fertilizer and watered. • 2. Post-emergence action against weeds: seeds of various broad-leaved weed and weed grass biotypes (origins) were sown in a 8-13 cm diameter pot filled with natural soil of a standard field soil (loamy silt; non-sterile) and covered with a covering soil layer of about 1 cm. The pots were then cultivated in a greenhouse (12-16 h of light, temperature day 20-22° C., night 15-18° C.) until the time of application. The pots were treated at various BBCH stages between 11-25 of the seeds/plants, i.e. generally between two to three weeks after the start of the cultivation, on a laboratory track sprayer with spray liquors comprising the compositions according to the invention, mixtures or components used individually, as WG, WP, EC or other formulations. The application rate for the spray application was 100-600 l of water/ha. After the treatment, the plants were returned to the greenhouses and, when required, treated with fertilizer and watered. • 3. […]

[2] = system: ALOMY; test: Greenhouse trial, PE application on sensitive and resistant biotypes (test method 8); format: in vivo, Alopecurus myosuroides; conditions: g of AS/ha: (A) 90, (B) 1200, (C) 90, mixture 90 + 1200 + 90, iodosulfuron 10; for activity ALOMY resistant (visual, scale 0-100%): resistant biotype; for activity ALOMY sensitive (visual, scale 0-100%): sensitive biotype
Description: as §1, §2
(§3) (notes: the term “seeds” also includes vegetative propagation forms such as, for example, rhizome pieces; abbreviations used: h light=hours of illumination, g of AS/ha=gram of active substance per hectare, l/ha=liter per hectare, S=sensitive, R=resistant) • 1. Pre-emergence action against weeds: seeds of various broad-leaved weed and weed grass biotypes (origins) were sown in a 8-13 cm diameter pot filled with natural soil of a standard field soil (loamy silt; non-sterile) and covered with a covering soil layer of about 1 cm. The pots were then cultivated in a greenhouse (12-16 h of light, temperature day 20-22° C., night 15-18° C.) until the time of application. The pots were treated at the BBCH stage 00-10 of the seeds/plants on a laboratory track sprayer with spray liquors comprising the compositions according to the invention, mixtures or components used individually, as WG, WP, EC or other formulations. The application rate for the spray application was 100-600 l of water/ha. After the treatment, the plants were returned to the greenhouses and, when required, treated with fertilizer and watered. • 2. Post-emergence action against weeds: seeds of various broad-leaved weed and weed grass biotypes (origins) were sown in a 8-13 cm diameter pot filled with natural soil of a standard field soil (loamy silt; non-sterile) and covered with a covering soil layer of about 1 cm. The pots were then cultivated in a greenhouse (12-16 h of light, temperature day 20-22° C., night 15-18° C.) until the time of application. The pots were treated at various BBCH stages between 11-25 of the seeds/plants, i.e. generally between two to three weeks after the start of the cultivation, on a laboratory track sprayer with spray liquors comprising the compositions according to the invention, mixtures or components used individually, as WG, WP, EC or other formulations. The application rate for the spray application was 100-600 l of water/ha. After the treatment, the plants were returned to the greenhouses and, when required, treated with fertilizer and watered. • 3. Selective pre-emergence action: seeds of various crop species (origins) were sown in a 8-13 cm diameter pot filled with natural soil of a standard field soil (loamy silt; non-sterile) and covered with a covering soil layer of about 1 cm. The pots were then cultivated in a greenhouse (12-16 h of light, temperature day 20-22° C., night 15-18° C.) until the time of application. The pots were treated at the BBCH stage 00-10 of the seeds/plants on a laboratory track sprayer with spray liquors comprising the compositions according to the invention, mixtures or components used individually, as WG, WP, EC or other formulations. The application rate for the spray application was 100-600 l of water/ha. […]

[3] = system: STEME; test: Greenhouse trial, activity with different soil types; format: in vivo, Stellaria media; conditions: IU/EC73 soil versus IU soil; g of AS/ha: (A) 120, (B) 1200, (C) 90, mixture 120 + 1200 + 90
Description: as §1, §2, §3

[4] = system: HORVS; test: Greenhouse trial, PO application, selective post-emergence action on crop (test method 4); format: in vivo, Hordeum vulgare, summer barley; conditions: g of AS/ha: (A) 120, (B) 1200, (C) 120, mixture 120 + 1200 + 120
Description: as §1
as §2, with “group. […]” for “group.”

[5] = system: HORVS; test: Greenhouse trial, PE application, selective pre-emergence action on crop (test method 3); format: in vivo, Hordeum vulgare, summer barley; conditions: g of AS/ha: (A) 90, (B) 1200, (C) 90, mixture 90 + 1200
Description: as §1
as §2, with “group. […]” for “group.”

[6] = system: HORVS; test: Greenhouse trial, pre-sowing application 7 days prior to sowing (test method 5); format: in vivo, Hordeum vulgare, summer barley; conditions: g of AS/ha: (A) 90, (B) 1200, (C) 90, mixture 90 + 1200
Description: as §1
as §2, with “group. […]” for “group.”

[7] = system: TRZAW; test: Greenhouse trial, PE application at different sowing depths (test method 9); format: in vivo, Triticum aestivum, winter wheat; conditions: g of AS/ha: (A) 120, (B) 1200, (C) 90, mixture 90 + 1200 + 90
Description: as §1, §2
(§4) (notes: the term “seeds” also includes vegetative propagation forms such as, for example, rhizome pieces; abbreviations used: h light=hours of illumination, g of AS/ha=gram of active substance per hectare, l/ha=liter per hectare, S=sensitive, R=resistant) • 1. Pre-emergence action against weeds: seeds of various broad-leaved weed and weed grass biotypes (origins) were sown in a 8-13 cm diameter pot filled with natural soil of a standard field soil (loamy silt; non-sterile) and covered with a covering soil layer of about 1 cm. The pots were then cultivated in a greenhouse (12-16 h of light, temperature day 20-22° C., night 15-18° C.) until the time of application. The pots were treated at the BBCH stage 00-10 of the seeds/plants on a laboratory track sprayer with spray liquors comprising the compositions according to the invention, mixtures or components used individually, as WG, WP, EC or other formulations. The application rate for the spray application was 100-600 l of water/ha. After the treatment, the plants were returned to the greenhouses and, when required, treated with fertilizer and watered. • 2. Post-emergence action against weeds: seeds of various broad-leaved weed and weed grass biotypes (origins) were sown in a 8-13 cm diameter pot filled with natural soil of a standard field soil (loamy silt; non-sterile) and covered with a covering soil layer of about 1 cm. The pots were then cultivated in a greenhouse (12-16 h of light, temperature day 20-22° C., night 15-18° C.) until the time of application. […]

[8] = system: AVEFA; test: Greenhouse trial, pre-sowing application 7 days prior to sowing (test method 5); format: in vivo, Avena fatua; conditions: g of AS/ha: (A) 90, (B) 1200, (C) 90, mixture 90 + 1200
Description: as §1
as §2, with “group. […]” for “group.”

[9] = system: TRZAS; test: Greenhouse trial, PE application with different irrigation variations (test method 6); format: in vivo, Triticum aestivum, summer wheat; conditions: g of AS/ha: (A) 120, (B) 1200, (C) 90, mixture 120 + 1200 + 90
Description: as §1, §2, §4

| SMILES | activity on crop plant HORVS IU soil (visual, scale 0-100%) ([1]; IU soil) | activity on crop plant HORVS IU/EC73 soil (visual, scale 0-100%) ([1]; IU/EC73 soil) | activity ALOMY resistant (visual, scale 0-100%) [2] | activity ALOMY sensitive (visual, scale 0-100%) [2] | Difference of the soil types, STEME [3] | activity on crop plant HORVS (visual, scale 0-100%) [4] | activity on crop plant HORVS (visual, scale 0-100%) [5] | activity on crop plant HORVS (visual, scale 0-100%) [6] | activity on crop plant TRZAW 5 mm (visual, scale 0-100%) ([7]; sowing depth 5 mm) | activity on crop plant TRZAW 20 mm (visual, scale 0-100%) ([7]; sowing depth 20 mm) | activity AVEFA (visual, scale 0-100%) [8] | activity on crop plant TRZAS (visual, scale 0-100%) ([9]; irrigation from above) | activity on crop plant TRZAS (visual, scale 0-100%) ([9]; irrigation from below) |
| --- | --- | --- | --- | --- | --- | --- | --- | --- | --- | --- | --- | --- | --- |
| O=C(Nc1ccc(F)cc1F)c1cccnc1Oc1cccc(C(F)(F)F)c1 [(C) diflufenican, N-(2,4-difluorophenyl)-2-[3-(trifluoromethyl)phenoxy]-3-pyridinecarboxamide] | 0% | 0% | 30% | 30% | −57% | 5% | 5% | 30% | 20% | 20% | 0% | 10% | 0% |
| COc1nc(C)nc(NC(=O)NS(=O)(=O)c2cc(I)ccc2C(=O)O)n1 [C)^1 iodosulfuron, iodosulfuron] | – | – | 50% | 98% | – | – | – | – | – | – | – | – | – |
